Measurements as given in publication PMC12568301 (Veterinary Sciences, 2025).
“Also recorded” adds a separate entry of the source. Where two headings read alike, the source gives them in different places.

What was measured:
FMDV serotype A (NP05) [1] = assay: microbe, parasite or virus in culture; format: cell-based, Foot-and-Mouth Disease Virus; settings: for EC50: BHK-21, 22 h, read-out: Antiviral Activity EC50, Viral Copy Number (RT-qPCR)
[2] = test system: FMDV serotype A (A/TAI/NP05/2017; NP05); assay: microbe, parasite or virus in culture; settings: Foot-and-mouth disease virus
BHK-21 cells = settings: for Cytotoxicity CC10 (maximum non-toxic concentration): hamster
[3] = test system: FMDV serotype A (A/TAI/NP05/2017; NP05); assay: in vitro; settings: hamster
FMDV 3D^pol = FMDV 3D^pol (Foot-and-mouth disease virus serotype O, UniProt P03305); assay: cell-based; format: cell-based
[4] = test system: FMDV serotype A (A/TAI/NP05/2017; NP05); format: cell-based, Foot-and-Mouth Disease Virus
FMDV serotype A (NP05) [5] = assay: microbe, parasite or virus in culture; format: cell-based, Foot-and-Mouth Disease Virus; settings: for EC50: Foot-and-mouth disease virus, BHK-21, read-out: Antiviral Activity EC50, Normalized Delta Ct (RT-qPCR)
FMDV 3C^pro = FMDV 3C^pro (Foot-and-mouth disease virus serotype O, UniProt P03305); format: cell-based
in vitro = settings: hamster
[6] = test system: influenza virus neuraminidase; settings: 5 µg/mL; cited from earlier work
influenza A (H1N1) virus = settings: cited from earlier work
[7] = BHK-21, read-out: Antiviral Activity EC50, FMDV Specific-Positive Cell (IPMA)

FMDV 3D^pol, sequence (P03305 1863-2332 limits assumed): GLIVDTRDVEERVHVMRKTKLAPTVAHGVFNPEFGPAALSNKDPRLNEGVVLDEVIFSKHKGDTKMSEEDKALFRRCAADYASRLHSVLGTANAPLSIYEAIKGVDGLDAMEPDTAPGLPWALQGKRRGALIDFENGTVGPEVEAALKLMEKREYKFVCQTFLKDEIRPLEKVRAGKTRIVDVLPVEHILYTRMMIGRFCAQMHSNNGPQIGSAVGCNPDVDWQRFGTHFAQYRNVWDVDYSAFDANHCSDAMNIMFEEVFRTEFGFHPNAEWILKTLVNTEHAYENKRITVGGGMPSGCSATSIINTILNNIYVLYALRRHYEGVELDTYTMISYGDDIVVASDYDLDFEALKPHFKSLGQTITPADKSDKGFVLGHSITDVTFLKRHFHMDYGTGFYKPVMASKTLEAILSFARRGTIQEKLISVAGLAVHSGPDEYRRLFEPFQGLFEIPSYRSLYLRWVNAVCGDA
FMDV 3C^pro, sequence (P03305 1650-1862 limits assumed): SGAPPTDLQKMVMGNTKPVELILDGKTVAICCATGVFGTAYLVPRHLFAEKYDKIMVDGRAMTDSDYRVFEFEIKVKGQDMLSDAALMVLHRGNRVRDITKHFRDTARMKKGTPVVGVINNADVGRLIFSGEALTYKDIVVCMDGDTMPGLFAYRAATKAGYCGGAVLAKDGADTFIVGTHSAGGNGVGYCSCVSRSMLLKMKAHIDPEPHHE

c1cc2c(cc1[C@H]1OC[C@H]3[C@@H]1CO[C@H]3c1ccc3c(c1)OCO3)OCO2 [(-)-Asarinin]
Selective index SI, Viral Copy Number (RT-qPCR) (FMDV serotype A (NP05) [1]): 36.70 ± 1.57 (36.06 to 37.34) SI = 2.46 | EC50 (FMDV serotype A (NP05) [1]; Foot-and-mouth disease virus): 36.7 µM | inhibition at 40 µM (FMDV serotype A (NP05) [1]; Foot-and-mouth disease virus, BHK-21, read-out: Inhibition of FMDV viral copy number): 50% | EC50 [2, 7]: 15.1 µM | EC50 ([2]; BHK-21, read-out: Effect against FMDV infection (range of EC50 values)): 15.1 to 36.7 µM | Toxicity to BHK-21 cells in words (BHK-21 cells; at 100 µM): moderate cytotoxicity | Cytotoxicity CC10 (maximum non-toxic concentration) (BHK-21 cells): 65.05 ± 1.81 µM | selectivity ratio [3]: 5.99 | Fold greater potency compared to sesamin (IC50, minigenome) (FMDV 3D^pol): approximately 7 fold | IC50 (FMDV 3D^pol): 10.4 µM | Selective index SI, GFP Signal (FMDV Minigenome) (FMDV 3D^pol): 10.37 ± 1.01 (9.56 to 11.18) SI = 8.72 | Inhibition of FMDV infection / cytopathic effect, post-viral entry [4]: dose-dependent inhibition | Inhibition of negative-strand RNA production (FMDV serotype A (NP05) [5]): > 60% | Selective index SI, Normalized Delta Ct (RT-qPCR) (FMDV serotype A (NP05) [5]): 31.67 ± 1.50 (30.47 to 32.87) SI = 2.86 | EC50 (FMDV serotype A (NP05) [5]): 31.7 µM | Effect on FMDV 3C^pro activity (FMDV 3C^pro): Neither sesamin nor (-)-asarinin inhibited FMDV 3C^pro; also recorded: no activity observed | CC50 (in vitro): 90.4 ± 1.95 µM

COc1cc(C2OCC3C(c4cc(OC)c(OC5OC(CO)C(O)C(O)C5O)c(OC)c4)OCC23)cc(OC)c1OC1OC(CO)C(O)C(O)C1O (stereo not shown) [Eleutheroside E]
Toxicity to BHK-21 cells in words (BHK-21 cells): moderate cytotoxicity | Cytotoxicity CC10 (maximum non-toxic concentration) (BHK-21 cells): 11.39 ± 1.05 µM | Inhibition of FMDV infection / cytopathic effect, post-viral entry [4]: no potent effect | CC50 (in vitro): 20.8 ± 1.31 µM

OC12COC(c3ccc4c(c3)OCO4)C1COC2c1ccc2c(c1)OCO2 (stereo not shown) [Paulownin]
Toxicity to BHK-21 cells in words (BHK-21 cells): mild toxicity | Cytotoxicity CC10 (maximum non-toxic concentration) (BHK-21 cells): 147.00 ± 2.167 µM | CC50 (in vitro): 860.6 ± 2.93 µM

COc1cc([C@@H]2c3cc4c(cc3[C@H](O)[C@H]3COC(=O)[C@@H]23)OCO4)cc(OC)c1OC [Picropodophyllotoxin]
Toxicity to BHK-21 cells in words (BHK-21 cells): moderate cytotoxicity | Cytotoxicity CC10 (maximum non-toxic concentration) (BHK-21 cells): 50.07 ± 1.70 µM | CC50 (in vitro): 136 ± 2.13 µM

NC(=O)c1ncn([C@@H]2O[C@H](CO)[C@@H](O)[C@H]2O)n1 [Ribavirin, reference compound]
EC50 (FMDV serotype A (NP05) [1]; Foot-and-mouth disease virus): 32.8 µM | EC50 [2, 7]: 39.6 µM | EC50 (FMDV serotype A (NP05) [5]): 29.4 µM | CC50 (in vitro): ≥ 500 µM

c1cc2c(cc1[C@H]1OC[C@H]3[C@@H]1CO[C@@H]3c1ccc3c(c1)OCO3)OCO2 [Sesamin]
Inhibition of FMDV viral copy number in words (FMDV serotype A (NP05) [1]): markedly significant inhibition | Selective index SI, Viral Copy Number (RT-qPCR) (FMDV serotype A (NP05) [1]): 82.43 ± 1.92 (81.65 to 83.21) SI = 7.33 | EC50 (FMDV serotype A (NP05) [1]; Foot-and-mouth disease virus): 82.4 µM | Inhibition of influenza virus neuraminidase [6]: inhibited influenza virus neuraminidase | EC50 [2, 7]: 53 µM | Toxicity to BHK-21 cells in words (BHK-21 cells; at 100 µM): mild toxicity | Cytotoxicity CC10 (maximum non-toxic concentration) (BHK-21 cells): 254.20 ± 2.40 µM | selectivity ratio [3]: 11.4 | IC50 (FMDV 3D^pol): 74.9 µM | Selective index SI, GFP Signal (FMDV Minigenome) (FMDV 3D^pol): 74.89 ± 1.87 (73.39 to 76.39) SI = 8.07 | Inhibition of FMDV infection / cytopathic effect, post-viral entry [4]: dose-dependent inhibition | Selective index SI, Normalized Delta Ct (RT-qPCR) (FMDV serotype A (NP05) [5]): 60.94 ± 1.79 (60.21 to 61.67) SI = 9.92 | EC50 (FMDV serotype A (NP05) [5]): 60.9 µM | Cytotoxicity (influenza A (H1N1) virus): without exhibiting cytotoxicity | Inhibition of influenza A (H1N1) virus (reduced inflammatory cytokines) (influenza A (H1N1) virus): inhibit influenza A (H1N1) virus | Effect on FMDV 3C^pro activity (FMDV 3C^pro): Neither sesamin nor (-)-asarinin inhibited FMDV 3C^pro | CC50 (in vitro): 604.6 ± 2.78 µM

Gomisin A
Inhibition of FMDV infection / cytopathic effect, post-viral entry [4]: no potent effect
